This is an account of results in patent US8106055B2, “Substituted amide compounds” (Gruenenthal GmbH, priority 2007, dated 2012).

One assay addresses T1, human μ opiate receptor (Homo sapiens, UniProt P35372).
T1 construct: purchased PerkinElmer Life Sciences, Zaventem, Belgium RB-HOM; host or cells: CHO-K1 cells (membrane preparation)
Briefly: Affinity for the human μ opiate receptor ([3H]-naloxone displacement, CHO-K1 receptor membrane preparation, SPA). Type of assay: binding. As to conditions: 1.5 h, Table 3, to be read in the same way as Table 1; test concentration 1 μM; read-out: μ. As for the experimental part:
Binding data of the compounds on the μ opioid receptor and data on the inhibition of reuptake of serotonin (5-HT) are given in Table 1. The data for the μ receptor were measured at a test concentration of 1 μM, and those for the serotonin reuptake at 10 μM. The values are stated in % inhibition.
Investigation of the Activity of the Compounds of the Invention Method for Determining the Affinity for the Human μ Opiate Receptor
The receptor affinity for the human p opiate receptor is determined in a homogeneous set-up in microtitre plates. For this, dilution series of the substances to be tested are incubated with a receptor membrane preparation (15-40 μg of protein/250 μl of incubation batch) of CHO-K1 cells which express the human p opiate receptor (RB-HOM receptor membrane preparation from PerkinElmer Life Sciences, Zaventem, Belgium) in the presence of 1 nmol/l of the radioactive ligand [^3H]-naloxone (NET719, PerkinElmer Life Sciences, Zaventem, Belgium) and 1 mg of WGA-SPA-Beads (wheat germ agglutinin SPA beads from Amersham/Pharmacia, Freiburg, Germany) in a total volume of 250 μl for 90 minutes at room temperature. 50 mmol/l of Tris-HCl supplemented with 0.06% of bovine serum albumin is used as the incubation buffer. 100 μmol/l of naloxone are additionally added for determination of the non-specific binding. After the end of the ninety-minute incubation time, the microtitre plates are centrifuged for 20 minutes at 1,000 g and the radioactivity is measured in a β-counter (Microbeta-Trilux, PerkinElmer Wallac, Freiburg, Germany). The percentage displacement of the radioactive ligand from its binding to the human p opiate receptor is determined at a concentration of the test substances of 1 μmol/l and stated as the percentage inhibition of the specific binding. Starting from the percentage displacement by various concentrations of the test substances, IC50 inhibitory concentrations which cause a 50 percent displacement of the radioactive ligand are calculated. By conversion by means of the Cheng-Prusoff relationship, Ki values for the test substances are obtained.

In assay [1] the target is T2, human bradykinin 1 receptor (B1R) (Homo sapiens, UniProt P46663).
T2 construct: expressed in transfected cells; host or cells: CHO K1 cells
T2 sequence (P46663 1-353): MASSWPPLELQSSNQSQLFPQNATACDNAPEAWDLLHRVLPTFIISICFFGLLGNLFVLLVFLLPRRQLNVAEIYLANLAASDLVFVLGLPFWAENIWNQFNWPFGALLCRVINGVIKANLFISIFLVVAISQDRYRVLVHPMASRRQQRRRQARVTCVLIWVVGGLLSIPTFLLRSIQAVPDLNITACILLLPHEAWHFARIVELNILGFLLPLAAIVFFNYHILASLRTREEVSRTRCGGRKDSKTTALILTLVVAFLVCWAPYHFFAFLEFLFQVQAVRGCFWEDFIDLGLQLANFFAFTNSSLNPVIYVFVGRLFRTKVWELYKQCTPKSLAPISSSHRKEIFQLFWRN
Put plainly: Functional investigation on the human bradykinin 1 receptor (B1R), Ca2+ FLIPR assay in CHO K1 hB1R cells. Type of assay: cell-based. As to conditions: test substance 10 μM, Ca2+ FLIPR, CHO K1 hB1R cells; for inhibition at 10 µM: CHO-K1, B1R antagonism human, read-out: B1R Ant. h [10 μM] % Inhibition. The essentials:
(§1)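 Stably transfected CHO K1 cells loaded with Fluo-4; FLIPR Ca2+ fluorescence peak (ex 488/em 540 nm). Compound added first (agonism vs Lys-Des-Arg9-bradykinin ≥50 nM human, Des-Arg9-bradykinin 10 μM rat), then after 10-20 min agonist at EC80; antagonism as % inhibition, IC50 from concentration series, n=2-3, N≥2.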

The target of assay [2] is T3, bradykinin 1 receptor (B1R) of the rat (Rattus norvegicus, UniProt P97583).
T3 construct: expressed in transfected cells; host or cells: CHO K1 cells
T3 sequence (P97583 1-337): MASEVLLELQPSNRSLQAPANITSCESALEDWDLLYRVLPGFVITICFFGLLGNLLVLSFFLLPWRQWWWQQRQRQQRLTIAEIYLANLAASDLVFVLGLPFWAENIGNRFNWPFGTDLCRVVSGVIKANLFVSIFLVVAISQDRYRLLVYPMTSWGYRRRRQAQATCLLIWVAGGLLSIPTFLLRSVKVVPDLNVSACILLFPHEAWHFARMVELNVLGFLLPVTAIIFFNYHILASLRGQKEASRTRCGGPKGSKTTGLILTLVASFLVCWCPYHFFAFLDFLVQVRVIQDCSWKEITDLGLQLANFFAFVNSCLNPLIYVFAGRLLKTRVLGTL
Put plainly: Functional investigation on the rat bradykinin 1 receptor (B1R), Ca2+ FLIPR assay in CHO K1 rB1R cells. The class given is cell-based. As to conditions: test substance 10 μM, Ca2+ FLIPR, CHO K1 rB1R cells; for inhibition at 10 µM: CHO-K1, B1R antagonism rat, read-out: B1R Ant. r [10 μM] % Inhibition. A digest of the protocol: as §1

T1 sequence (P35372 whole entry): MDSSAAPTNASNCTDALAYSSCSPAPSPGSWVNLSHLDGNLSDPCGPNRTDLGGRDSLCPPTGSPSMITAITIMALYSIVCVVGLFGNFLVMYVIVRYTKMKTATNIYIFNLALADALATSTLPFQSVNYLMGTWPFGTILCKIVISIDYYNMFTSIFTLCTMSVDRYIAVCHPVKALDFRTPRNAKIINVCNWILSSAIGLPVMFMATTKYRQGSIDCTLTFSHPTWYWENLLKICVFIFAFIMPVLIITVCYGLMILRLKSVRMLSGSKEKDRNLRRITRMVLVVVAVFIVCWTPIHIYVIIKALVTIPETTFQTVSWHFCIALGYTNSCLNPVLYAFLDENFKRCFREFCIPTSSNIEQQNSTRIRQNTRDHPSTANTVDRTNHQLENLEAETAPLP

On to `CN(CCOCC(=O)NC1CCC(C(c2ccccc2)N2CCCC2)CC1)S(=O)(=O)c1c(Cl)cc(C(F)(F)F)cc1Cl` (stereo not drawn) [Example 630, 2-(2-(2,6-dichloro-N-methyl-4-(trifluoromethyl)phenylsulfonamido)ethoxy)-N-(4-(phenyl(pyrrolidin-1-yl)methyl)cyclohexyl)acetamide], for which the inhibition at 1 µM on human μ opiate receptor was 72%. Moreover, the results for the inhibition at 10 µM in assay [1] and in assay [2] were 50% and -11%, respectively.
The corresponding values for `O=C(COC1CCCN(S(=O)(=O)c2c(Cl)cc(Cl)cc2Cl)C1)NC1CCC(C(c2ccccc2)N2CCCC2)CC1` (stereo not drawn) [Example 631, N-(4-(phenyl(pyrrolidin-1-yl)methyl)cyclohexyl)-2-(1-(2,4,6-trichlorophenylsulfonyl)piperidin-3-yloxy)acetamide] are 88%, 92% and 87%.
The corresponding values for `COc1cc(C)c(S(=O)(=O)N2CCCC2COCC(=O)NC2CCC(C(c3ccccc3)N3CCCC3)CC2)c(C)c1` (stereo not drawn) [Example 632, 2-((1-(4-methoxy-2,6-dimethylphenylsulfonyl)pyrrolidin-2-yl)methoxy)-N-(4-(phenyl(pyrrolidin-1-yl)methyl)cyclohexyl)acetamide] are 68%, 105% and 75%.
The corresponding values for `O=C(COCC1CCCN(S(=O)(=O)c2c(Cl)cc(Cl)cc2Cl)C1)NC1CCC(C(c2ccccc2)N2CCCC2)CC1` (stereo not drawn) [Example 633, N-(4-(phenyl(pyrrolidin-1-yl)methyl)cyclohexyl)-2-((1-(2,4,6-trichlorophenylsulfonyl)piperidin-3-yl)methoxy)acetamide] are 91%, 55% and 63%.
In the case of `CN(CCOCC(=O)NC1CCC(C(c2ccccc2)N2CCCC2)CC1)S(=O)(=O)c1c(Cl)cccc1Cl` (stereo not drawn) [Example 634, 2-(2-(2,6-dichloro-N-methylphenylsulfonamido)ethoxy)-N-(4-(phenyl(pyrrolidin-1-yl)methyl)cyclohexyl)acetamide], the inhibition at 1 µM on human μ opiate receptor is 68%. The inhibition at 10 µM in assay [1] is 92%; in assay [2], 38%.
The like results for `O=C(COC1CCN(S(=O)(=O)c2c(Cl)cc(Cl)cc2Cl)C1)NC1CCC(C(c2ccccc2)N2CCCC2)CC1` (stereo not drawn) [Example 635, N-(4-(phenyl(pyrrolidin-1-yl)methyl)cyclohexyl)-2-(1-(2,4,6-trichlorophenylsulfonyl)pyrrolidin-3-yloxy)acetamide] were, in that order, 78%, 67% and 22%.
The like results for `CN(CCOCC(=O)NC1CCC(C(CCc2ccccc2)N2CCOCC2)CC1)S(=O)(=O)c1c(Cl)cc(Cl)cc1Cl` (stereo not drawn) [Example 636, N-(4-(1-morpholino-3-phenylpropyl)cyclohexyl)-2-(2-(2,4,6-trichloro-N-methylphenylsulfonamido)ethoxy)acetamide] were, in that order, 8%, 41% and 16%.
The like results for `CN(CCOCC(=O)NC1CCC(C(CCc2ccccc2)N2CCCCC2)CC1)S(=O)(=O)c1c(Cl)cc(Cl)cc1Cl` (stereo not drawn) [Example 637, N-(4-(3-phenyl-1-(piperidin-1-yl)propyl)cyclohexyl)-2-(2-(2,4,6-trichloro-N-methylphenylsulfonamido)ethoxy)acetamide] were, in that order, 35%, 85% and 45%.
In the case of `CN(CCOCC(=O)NC1CCC(C(c2ccccc2)N2CCOCC2)CC1)S(=O)(=O)c1c(Cl)cc(Cl)cc1Cl` (stereo not drawn) [Example 638, N-(4-(morpholino(phenyl)methyl)cyclohexyl)-2-(2-(2,4,6-trichloro-N-methylphenylsulfonamido)ethoxy)acetamide], the inhibition at 1 µM on human μ opiate receptor came out at 2%. In addition, the “B1R Ant. h [10 μM] % Inhibition” value in assay [1] (B1R antagonism human) came to 37%. Besides, the “B1R Ant. r [10 μM] % Inhibition” value in assay [2] (B1R antagonism rat) turned out to be 21%.
`CN(CCOCC(=O)NCC1CCC(C(c2ccccc2)N2CCOCC2)CC1)S(=O)(=O)c1c(Cl)cc(Cl)cc1Cl` (stereo not drawn) [Example 639, N-((4-(morpholino(phenyl)methyl)cyclohexyl)methyl)-2-(2-(2,4,6-trichloro-N-methylphenylsulfonamido)ethoxy)acetamide]: the inhibition at 1 µM at human μ opiate receptor was found to be 3%. For the same compound, the inhibition at 10 µM came out at 53% in assay [1] and 41% in assay [2].
The corresponding values for `CN(CCOCC(=O)NCC1CCC(C(CCc2ccccc2)N2CCCC2)CC1)S(=O)(=O)c1c(Cl)cc(Cl)cc1Cl` (stereo not drawn) [Example 640, N-((4-(3-phenyl-1-(pyrrolidin-1-yl)propyl)cyclohexyl)methyl)-2-(2-(2,4,6-trichloro-N-methylphenylsulfonamido)ethoxy)acetamide] are 27%, 101% and 63%.
The like results for `CN(CCOCC(=O)NCC1CCC(C(c2ccccc2)N2CCCC2)CC1)S(=O)(=O)c1ccc(Cl)cc1Cl` (stereo not drawn) [Example 641, 2-(2-(2,4-dichloro-N-methylphenylsulfonamido)ethoxy)-N-((4-(phenyl(pyrrolidin-1-yl)methyl)cyclohexyl)methyl)acetamide] were, in that order, 66%, 96% and 45%.
The like results for `COc1cc(C)c(S(=O)(=O)N(C)CCOCC(=O)NCC2CCC(C(c3ccccc3)N3CCCC3)CC2)c(C)c1` (stereo not drawn) [Example 642, 2-(2-(4-methoxy-N,2,6-trimethylphenylsulfonamido)ethoxy)-N-((4-(phenyl(pyrrolidin-1-yl)methyl)cyclohexyl)methyl)acetamide] were, in that order, 54%, 105% and 105%.
For the compound `CN(CCOCC(=O)NCC1CCC(C(c2ccccc2)N2CCCC2)CC1)S(=O)(=O)c1c(Cl)cccc1Cl` (stereo not drawn) [Example 643, 2-(2-(2,6-dichloro-N-methylphenylsulfonamido)ethoxy)-N-((4-(phenyl(pyrrolidin-1-yl)methyl)cyclohexyl)methyl)acetamide], on human μ opiate receptor, the inhibition at 1 µM is 76%. In addition, the values for the inhibition at 10 µM in assay [1] and in assay [2] were 102% and 62%, respectively.
The like results for `O=C(COC1CCN(S(=O)(=O)c2c(Cl)cc(Cl)cc2Cl)C1)NCC1CCC(C(c2ccccc2)N2CCCC2)CC1` (stereo not drawn) [Example 644, N-((4-(phenyl(pyrrolidin-1-yl)methyl)cyclohexyl)methyl)-2-(1-(2,4,6-trichlorophenylsulfonyl)pyrrolidin-3-yloxy)acetamide] were, in that order, 59%, 73% and 52%.
